Assay in all cases: biochemical
Type in all cases: biochemical

The target of assay [1] is 363 human kinases (including Aurora A/B/C) (Homo sapiens, UniProt P14616). As to conditions: IRR/INSRR; for remaining activity at 0.1 µM: 100 nM; for remaining activity at 0.1 µM / remaining activity at 0.5 µM: read-out: % Enzyme Activity (relative to DMSO controls).
Excerpt: (§1) However, the Aurora A/B selectivity ratios derived from our in vitro and in vivo data can be compared to prioritize inhibitors.
Assay [2] deals with T1, 363 human kinases (including Aurora A/B/C) (Homo sapiens, UniProt Q13470).
T1 sequence (Q13470 1-666): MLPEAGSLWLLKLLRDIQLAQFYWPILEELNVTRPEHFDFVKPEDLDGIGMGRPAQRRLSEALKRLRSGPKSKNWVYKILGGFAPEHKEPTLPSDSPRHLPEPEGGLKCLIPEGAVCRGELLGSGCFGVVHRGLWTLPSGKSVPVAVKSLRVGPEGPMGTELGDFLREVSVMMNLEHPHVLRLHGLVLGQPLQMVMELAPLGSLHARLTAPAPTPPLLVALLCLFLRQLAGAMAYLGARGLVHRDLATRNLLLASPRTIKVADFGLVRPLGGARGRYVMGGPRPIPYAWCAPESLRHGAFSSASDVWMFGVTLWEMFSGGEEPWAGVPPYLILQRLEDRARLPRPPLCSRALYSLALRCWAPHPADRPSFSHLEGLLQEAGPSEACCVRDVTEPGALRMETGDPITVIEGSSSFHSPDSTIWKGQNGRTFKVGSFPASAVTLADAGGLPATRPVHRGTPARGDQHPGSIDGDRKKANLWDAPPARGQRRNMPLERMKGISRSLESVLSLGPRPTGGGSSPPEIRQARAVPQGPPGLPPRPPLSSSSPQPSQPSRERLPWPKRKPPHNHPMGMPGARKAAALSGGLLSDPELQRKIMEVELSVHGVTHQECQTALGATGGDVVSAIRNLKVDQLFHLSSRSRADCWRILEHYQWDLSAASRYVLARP
As to conditions: TNK1; for remaining activity at 0.1 µM: 100 nM; for remaining activity at 0.1 µM / remaining activity at 0.5 µM: read-out: % Enzyme Activity (relative to DMSO controls).
Excerpt: as §1

In assay [3] the target is T2, 363 human kinases (including Aurora A/B/C) (Homo sapiens, UniProt Q16566).
T2 sequence (Q16566 1-473): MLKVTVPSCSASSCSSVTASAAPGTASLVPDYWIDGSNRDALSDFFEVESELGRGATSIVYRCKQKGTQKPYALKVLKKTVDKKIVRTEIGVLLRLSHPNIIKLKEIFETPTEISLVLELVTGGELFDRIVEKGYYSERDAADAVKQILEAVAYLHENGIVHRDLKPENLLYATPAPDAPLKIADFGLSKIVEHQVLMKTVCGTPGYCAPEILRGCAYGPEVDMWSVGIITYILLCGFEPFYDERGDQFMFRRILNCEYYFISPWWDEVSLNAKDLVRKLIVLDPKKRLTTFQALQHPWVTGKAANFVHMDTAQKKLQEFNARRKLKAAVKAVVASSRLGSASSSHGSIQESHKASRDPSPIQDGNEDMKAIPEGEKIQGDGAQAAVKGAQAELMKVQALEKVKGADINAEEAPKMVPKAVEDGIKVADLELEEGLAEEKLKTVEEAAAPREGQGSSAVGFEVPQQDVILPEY
As to conditions: CAMK4, [ATP] 10 µM; for remaining activity at 0.1 µM: 100 nM; for remaining activity at 0.1 µM / remaining activity at 0.5 µM: read-out: % Enzyme Activity (relative to DMSO controls).
Excerpt: as §1

The target in assay [4] is T3, 363 human kinases (including Aurora A/B/C) (Homo sapiens, UniProt Q99683).
T3 sequence (Q99683 1-1374): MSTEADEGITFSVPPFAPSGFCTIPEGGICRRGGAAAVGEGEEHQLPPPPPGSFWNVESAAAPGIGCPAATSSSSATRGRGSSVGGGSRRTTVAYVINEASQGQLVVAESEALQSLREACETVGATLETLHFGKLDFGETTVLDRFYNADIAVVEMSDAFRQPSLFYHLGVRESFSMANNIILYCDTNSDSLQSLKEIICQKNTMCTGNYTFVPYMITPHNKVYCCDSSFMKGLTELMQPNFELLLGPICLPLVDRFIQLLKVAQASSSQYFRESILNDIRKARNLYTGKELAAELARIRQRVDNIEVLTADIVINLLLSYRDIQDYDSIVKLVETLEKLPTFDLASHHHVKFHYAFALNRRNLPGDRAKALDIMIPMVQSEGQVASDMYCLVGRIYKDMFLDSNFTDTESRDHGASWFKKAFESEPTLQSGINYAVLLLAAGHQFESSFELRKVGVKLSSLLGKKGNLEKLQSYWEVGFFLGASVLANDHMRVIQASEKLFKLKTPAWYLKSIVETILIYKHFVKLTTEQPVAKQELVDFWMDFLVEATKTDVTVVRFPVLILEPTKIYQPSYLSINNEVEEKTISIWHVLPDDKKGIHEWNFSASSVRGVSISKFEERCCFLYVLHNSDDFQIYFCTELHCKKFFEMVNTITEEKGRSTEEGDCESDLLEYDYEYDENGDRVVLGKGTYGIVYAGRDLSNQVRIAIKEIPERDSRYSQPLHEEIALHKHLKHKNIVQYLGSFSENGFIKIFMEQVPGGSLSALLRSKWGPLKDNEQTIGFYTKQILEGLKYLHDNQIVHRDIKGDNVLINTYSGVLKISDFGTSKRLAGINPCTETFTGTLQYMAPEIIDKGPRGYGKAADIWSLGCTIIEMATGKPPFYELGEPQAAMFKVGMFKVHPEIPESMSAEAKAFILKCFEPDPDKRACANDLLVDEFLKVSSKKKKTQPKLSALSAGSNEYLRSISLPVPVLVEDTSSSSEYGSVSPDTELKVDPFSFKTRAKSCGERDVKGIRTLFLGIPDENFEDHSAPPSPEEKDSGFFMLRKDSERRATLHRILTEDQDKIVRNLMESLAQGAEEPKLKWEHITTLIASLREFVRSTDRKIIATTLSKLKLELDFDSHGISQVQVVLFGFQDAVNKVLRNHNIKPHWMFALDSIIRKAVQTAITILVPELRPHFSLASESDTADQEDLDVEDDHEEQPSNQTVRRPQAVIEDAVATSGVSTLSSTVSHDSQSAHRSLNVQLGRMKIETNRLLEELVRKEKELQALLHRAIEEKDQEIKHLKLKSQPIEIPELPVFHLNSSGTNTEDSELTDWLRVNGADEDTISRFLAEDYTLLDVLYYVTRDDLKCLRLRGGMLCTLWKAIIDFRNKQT
The following applies: ASK1/MAP3K5, [ATP] 100 µM; for remaining activity at 0.1 µM: 100 nM; for remaining activity at 0.1 µM / remaining activity at 0.5 µM: read-out: % Enzyme Activity (relative to DMSO controls).
Excerpt: as §1

The target of assay [5] is 363 human kinases (including Aurora A/B/C) (Homo sapiens, UniProt Q9NYY3). The following applies: PLK2; for remaining activity at 0.1 µM: 100 nM; for remaining activity at 0.1 µM / remaining activity at 0.5 µM: read-out: % Enzyme Activity (relative to DMSO controls).
363 human kinases (including Aurora A/B/C) (Homo sapiens, UniProt Q9NYY3), sequence (Q9NYY3 whole entry): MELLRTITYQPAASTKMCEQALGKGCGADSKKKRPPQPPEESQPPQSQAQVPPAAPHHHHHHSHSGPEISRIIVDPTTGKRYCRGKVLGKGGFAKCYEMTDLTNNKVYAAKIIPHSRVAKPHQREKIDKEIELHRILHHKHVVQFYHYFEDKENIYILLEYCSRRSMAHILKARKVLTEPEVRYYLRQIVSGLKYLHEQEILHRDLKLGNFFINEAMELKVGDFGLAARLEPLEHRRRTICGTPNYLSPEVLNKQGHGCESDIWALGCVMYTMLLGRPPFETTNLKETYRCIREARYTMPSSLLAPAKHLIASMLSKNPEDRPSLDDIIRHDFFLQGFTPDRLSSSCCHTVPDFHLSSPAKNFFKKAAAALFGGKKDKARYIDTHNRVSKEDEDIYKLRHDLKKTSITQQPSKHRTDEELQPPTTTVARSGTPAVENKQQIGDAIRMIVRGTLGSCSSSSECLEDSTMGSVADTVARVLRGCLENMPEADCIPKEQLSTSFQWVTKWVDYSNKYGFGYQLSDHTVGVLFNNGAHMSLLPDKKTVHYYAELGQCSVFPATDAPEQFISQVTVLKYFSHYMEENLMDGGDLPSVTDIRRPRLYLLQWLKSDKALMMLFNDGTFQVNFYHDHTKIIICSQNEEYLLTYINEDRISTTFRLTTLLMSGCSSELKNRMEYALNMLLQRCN
Excerpt: as §1

363 human kinases (including Aurora A/B/C) (Homo sapiens, UniProt P14616), sequence (P14616 27-1297): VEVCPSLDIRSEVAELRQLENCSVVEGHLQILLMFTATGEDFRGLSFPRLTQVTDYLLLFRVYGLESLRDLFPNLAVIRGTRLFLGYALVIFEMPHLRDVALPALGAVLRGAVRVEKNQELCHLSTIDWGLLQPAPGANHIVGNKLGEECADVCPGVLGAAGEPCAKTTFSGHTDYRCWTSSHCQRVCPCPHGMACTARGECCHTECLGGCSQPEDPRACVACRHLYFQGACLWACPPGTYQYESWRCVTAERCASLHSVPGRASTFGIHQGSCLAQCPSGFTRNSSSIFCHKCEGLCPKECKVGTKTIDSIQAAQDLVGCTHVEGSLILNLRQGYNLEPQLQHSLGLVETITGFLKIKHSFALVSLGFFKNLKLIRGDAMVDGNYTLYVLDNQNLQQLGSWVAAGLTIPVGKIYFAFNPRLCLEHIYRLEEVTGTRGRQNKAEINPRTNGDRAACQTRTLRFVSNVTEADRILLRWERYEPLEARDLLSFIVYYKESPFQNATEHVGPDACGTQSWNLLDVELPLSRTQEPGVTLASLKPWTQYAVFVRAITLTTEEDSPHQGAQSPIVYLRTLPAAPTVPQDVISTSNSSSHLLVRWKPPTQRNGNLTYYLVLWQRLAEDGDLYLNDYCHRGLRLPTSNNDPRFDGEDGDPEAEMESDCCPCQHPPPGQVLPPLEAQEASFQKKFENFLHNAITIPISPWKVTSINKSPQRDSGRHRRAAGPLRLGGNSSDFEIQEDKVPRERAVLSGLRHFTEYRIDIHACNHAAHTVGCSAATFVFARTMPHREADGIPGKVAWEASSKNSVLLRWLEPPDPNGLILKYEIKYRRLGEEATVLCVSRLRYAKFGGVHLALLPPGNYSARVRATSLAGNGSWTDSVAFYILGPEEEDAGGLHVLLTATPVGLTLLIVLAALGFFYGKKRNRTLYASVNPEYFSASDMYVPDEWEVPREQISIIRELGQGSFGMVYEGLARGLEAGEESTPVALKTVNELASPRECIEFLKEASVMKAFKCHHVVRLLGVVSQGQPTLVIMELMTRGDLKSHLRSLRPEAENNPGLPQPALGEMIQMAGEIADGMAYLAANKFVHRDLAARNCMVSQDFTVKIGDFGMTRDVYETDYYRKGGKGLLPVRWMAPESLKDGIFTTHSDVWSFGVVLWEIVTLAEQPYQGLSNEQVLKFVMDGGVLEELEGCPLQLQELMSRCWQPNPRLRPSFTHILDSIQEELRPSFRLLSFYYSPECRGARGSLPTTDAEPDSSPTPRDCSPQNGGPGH

As to `CCn1cc(-c2ccnc3[nH]c(-c4cccc(CN(C)C)c4)cc23)c(-c2ccc(NC(=O)N(C)C)cc2)n1` [GSK1070916], the remaining activity at 0.1 µM was 99.5% in assay [1]; 90.7% in assay [2]; 98.5% in assay [3]; 79.6% in assay [4]; 91.2% in assay [5].

For `O=C(O)[C@]1(Cc2cccc(Nc3nccs3)n2)CC[C@@H](Oc2cccc(Cl)c2F)CC1` [MK-5108], the remaining activity at 0.1 µM in assay [1] was found to be 81.7%; in assay [2], 22.9%; in assay [3], 93.4%; in assay [4], 85.6%; in assay [5] it was 88.8%. For the same compound, the remaining activity at 0.5 µM in assay [1] (500 nM) turned out to be 46.3%; in assay [2] (500 nM) it was 6.3%; in assay [3] (500 nM), 99.8%; in assay [4] (500 nM), 73.8%; in assay [5] (500 nM), 85.1%.

`O=C(c1cccc(Cl)c1F)N1CCN(Cc2cccc(Nc3nccs3)n2)CC1` [MK-8745]: the “% Enzyme Activity (relative to DMSO controls)” value in assay [1] (500 nM) amounted to 75.20%; in assay [2] (500 nM), 75.54%; in assay [3] (500 nM), 101.38%; in assay [4] (500 nM), 78.24%; in assay [5] (500 nM) it was 81.10%. Further, the remaining activity at 0.5 µM is 76.4% in assay [1] (500 nM); 77.7% in assay [2] (500 nM); 102% in assay [3] (500 nM); 78.7% in assay [4] (500 nM); 81.9% in assay [5] (500 nM).

These data come from publication PMC4685510, “A Cell Biologist’s Field Guide to Aurora Kinase Inhibitors” (Frontiers in Oncology, 2015).
